# In patent US11147801B2, “Methods of use for trisubstituted benzotriazole derivatives as dihydroorotate oxygenase inhibitors” (Aurigene Discovery Technologies Limited, priority 2017, dated 2021):
# Tests used:
# [1] = system: HCC1143; assay: Triple negative breast cancer cell line panel, 96 hours; type: cell-based, human; settings: HCC1143, 96 hours
# Source text: (§1) A panel of triple negative cancer cell lines (TNBC) were screened to evaluate whether a subset of TNBC could potentially benefit from treatment with compound 1 as a single agent.
# [2] = system: HCC1806; assay: as above; type: cell-based, human; settings: HCC1806, 96 hours
# Source text: as §1
# [3] = system: HCC38; assay: as above; type: cell-based, human; settings: HCC38, 96 hours
# Source text: as §1
# [4] = system: BTS49; assay: as above; type: cell-based, human; settings: BTS49, 96 hours
# Source text: as §1
# [5] = system: cell lines of heme lineage; assay: Follow-up screen on expanded panel of cell lines of heme lineage, 4-day growth assay; type: cell-based, human
# Protocol: (§2) A follow-up screen was performed on an expanded panel of cell lines of heme lineage in a 4-day growth assay. Growth was assessed by Cell-Titer Glo measurements on day 0 and day 4.
# (§3) Compound 1, of which diffuse large B cell lymphoma (DLBCL) lines were particularly sensitive (8/11 or 73%). A subset of the heme lines that were of intermediate sensitivity (defined as >50% and <75% growth rate inhibition) or insensitive (defined as <50% growth rate inhibition) to compound 1 in this follow-up screen were subjected to extended growth assays to evaluate if increased treatment time modulated their sensitivity profile. Specifically, these heme lines were pretreated with Compound 1 for three days at the indicated concentrations and then re-plated for a standard 4-day growth assay in fresh media/drug.
# [6] = system: BDCM; assay: Heme line growth assay (Cell-Titer Glo), 4-day and extended 7-day; type: cell-based, human; parameters: key to Sensitivity 7-day: *: insensitive; **: intermediate; ***: sensitive
# Protocol: as §2, §3
# [7] = system: REC-1; assay: as above; type: cell-based, human; parameters: key to Sensitivity 7-day: *: insensitive; **: intermediate; ***: sensitive
# Protocol: as §2, §3
# [8] = system: F36P; assay: as above; type: cell-based, human; parameters: key to Sensitivity 7-day: *: insensitive; **: intermediate; ***: sensitive
# Protocol: as §2, §3
# [9] = system: KMS12BM; assay: as above; type: cell-based, human; parameters: key to Sensitivity 7-day: *: insensitive; **: intermediate; ***: sensitive
# Protocol: as §2, §3
# [10] = system: MOLP-2; assay: as above; type: cell-based, human; parameters: key to Sensitivity 7-day: *: insensitive; **: intermediate; ***: sensitive
# Protocol: as §2, §3
# [11] = system: KG-1; assay: as above; type: cell-based, human; parameters: key to Sensitivity 7-day: *: insensitive; **: intermediate; ***: sensitive
# Protocol: as §2, §3
# [12] = system: U266B1; assay: as above; type: cell-based, human; parameters: key to Sensitivity 7-day: *: insensitive; **: intermediate; ***: sensitive
# Protocol: as §2, §3
# [13] = system: TF1; assay: as above; type: cell-based, human; parameters: key to Sensitivity 7-day: *: insensitive; **: intermediate; ***: sensitive
# Protocol: as §2, §3
# [14] = system: HuNS1; assay: as above; type: cell-based, human; parameters: key to Sensitivity 7-day: *: insensitive; **: intermediate; ***: sensitive
# Protocol: as §2, §3
# [15] = system: LP1; assay: as above; type: cell-based, human; parameters: key to Sensitivity 7-day: *: insensitive; **: intermediate; ***: sensitive
# Protocol: as §2, §3
# [16] = system: HEL; assay: as above; type: cell-based, human; parameters: key to Sensitivity 7-day: *: insensitive; **: intermediate; ***: sensitive
# Protocol: as §2, §3
# [17] = system: THP-1; assay: as above; type: cell-based, human; parameters: key to Sensitivity 7-day: *: insensitive; **: intermediate; ***: sensitive
# Protocol: as §2, §3
# [18] = system: SUDHL4; assay: as above; type: cell-based, human; parameters: key to Sensitivity 7-day: *: insensitive; **: intermediate; ***: sensitive
# Protocol: as §2, §3
# [19] = system: AML-193; assay: as above; type: cell-based, human; parameters: key to Sensitivity 7-day: *: insensitive; **: intermediate; ***: sensitive
# Protocol: as §2, §3
# [20] = system: OCILY18; assay: Double-hit DLBCL 96-hr growth assay; type: cell-based, human
# Protocol: (§4) FIG. 8 is a curve showing the relative growth rate of OCILY18, SC-1 and CARNAVAL double hit diffuse large B cell lymphoma (DLBCL) cell lines treated with various concentrations of Compound 1 for 96 hours.
# [21] = system: CARNAVAL; assay: Double-hit DLBCL 96-hr growth assay; type: cell-based, human
# Protocol: as §4
# [22] = system: SC-1; assay: Double-hit DLBCL 96-hr growth assay; type: cell-based, human; settings: SC-1, double-hit DLBCL
# Protocol: as §4
# [23] = system: AML and DLBCL patient-derived xenograft models; assay: AML and DLBCL patient-derived xenograft models (all models); type: in vivo, CB17 SCID mice; settings: all five AML and two DLBCL patient-derived models, 100 mg/kg BID PO
# Protocol: (§5) A screen was next performed using a small number of mice/group to assess efficacy of Compound 1 in AML and DLBCL patient-derived xenograft models. Tumor-bearing mice (n=3/group) were treated with vehicle or Compound 1 at 100 mg/kg BID PO.
# [24] = system: AML_2 tumor; assay: Patient-derived AML xenograft model AML_2; type: in vivo, CB17 SCID mice; settings: 100 mg/kg BID PO
# Protocol: as §5
# [25] = system: DU4475; assay: Triple negative breast cancer cell line panel, 96 hours; type: cell-based, human; settings: DU4475, 96 hours
# Protocol: FIG. 10 is a curve showing the relative growth rate of the DU4475 triple negative breast cancer line treated with various concentrations of Compound 1 for 96 hours.
# as §1
# [26] = 3 days pretreatment then 4-day growth assay
# [27] = acute myeloid leukemia, 4-day growth assay
structure (smiles),measurement,setting,value
"Cc1ccccc1-c1ccc(-c2cc(C(=O)O)c3c(c2)nnn3C)cc1 [Compound 1, 1-methyl-5-(2′-methyl-[1,1′-biphenyl]-4-yl)-1H-benzo[d][1,2,3]triazole-7-carboxylic Acid]",Sensitivity,[1],insensitive
same,Sensitivity,[2],insensitive
same,Sensitivity,[3],insensitive
same,Sensitivity,[4],insensitive
same,Share of diffuse large B cell lymphoma (DLBCL) lines that were sensitive,[5]; 8/11 lines,73%
same,Share of the heme lines screened that exhibited sensitivity,[5]; 20/80 lines,25%
same,Sensitivity 7-day,[6]; [26],***
same,Sensitivity 4-day,[6]; [27],** (intermediate)
same,Sensitivity 7-day,"[7]; REC-1, 3 days pretreatment then 4-day growth assay",***
same,Sensitivity 4-day,"[7]; REC-1, mantle cell lymphoma, 4-day growth assay",* (insensitive)
same,Sensitivity 7-day,[8]; [26],***
same,Sensitivity 4-day,[8]; [27],** (intermediate)
same,Sensitivity 7-day,[9]; [26],***
same,Sensitivity 4-day,"[9]; multiple myeloma, 4-day growth assay",** (intermediate)
same,Sensitivity 7-day,"[10]; MOLP-2, 3 days pretreatment then 4-day growth assay",***
same,Sensitivity 4-day,"[10]; MOLP-2, multiple myeloma, 4-day growth assay",** (intermediate)
same,Sensitivity 7-day,"[11]; KG-1, 3 days pretreatment then 4-day growth assay",***
same,Sensitivity 4-day,"[11]; KG-1, acute myeloid leukemia, 4-day growth assay",* (insensitive)
same,Sensitivity 7-day,"[12]; U266B1, 3 days pretreatment then 4-day growth assay",***
same,Sensitivity 4-day,"[12]; U266B1, multiple myeloma, 4-day growth assay",* (insensitive)
same,Sensitivity 7-day,"[13]; TF1, 3 days pretreatment then 4-day growth assay",***
same,Sensitivity 4-day,"[13]; TF1, acute myeloid leukemia, 4-day growth assay",* (insensitive)
same,Sensitivity 7-day,"[14]; HuNS1, 3 days pretreatment then 4-day growth assay",***
same,Sensitivity 4-day,"[14]; HuNS1, multiple myeloma, 4-day growth assay",* (insensitive)
same,Sensitivity 7-day,"[15]; LP1, 3 days pretreatment then 4-day growth assay",***
same,Sensitivity 4-day,"[15]; LP1, multiple myeloma, 4-day growth assay",* (insensitive)
same,Sensitivity 7-day,[16]; [26],***
same,Sensitivity 4-day,[16]; [27],** (intermediate)
same,Sensitivity 7-day,"[17]; THP-1, 3 days pretreatment then 4-day growth assay",***
same,Sensitivity 4-day,"[17]; THP-1, acute myeloid leukemia, 4-day growth assay",** (intermediate)
same,Sensitivity 7-day,"[18]; SUDHL4, 3 days pretreatment then 4-day growth assay",***
same,Sensitivity 4-day,"[18]; SUDHL4, diffuse large B cell lymphoma, 4-day growth assay",** (intermediate)
same,Sensitivity 7-day,"[19]; AML-193, 3 days pretreatment then 4-day growth assay",***
same,Sensitivity 4-day,"[19]; AML-193, acute myeloid leukemia, 4-day growth assay",** (intermediate)
same,Sensitivity to growth inhibition,[20],highly sensitive
same,Sensitivity to growth inhibition,[21],highly sensitive
same,Sensitivity to growth inhibition,[22],highly sensitive
same,Anti-tumor activity,[23],anti-tumor activity of Compound 1 was observed
same,TGI,[24],> 60%
same,Cell viability/growth,[25],robustly impaired cell viability/growth
